Values after ≈ are worked out from the molar mass of the structure shown.
What was measured:
[1] = tested on: Helicobacter pylori; experiment: Compound was evaluated for antimicrobial activity against Helicobacter pylori; assay type: functional
[2] = tested on: Bacteroides fragilis; experiment: Compound was evaluated for antimicrobial activity against Bacteroides fragilis; assay type: functional
[3] = tested on: Clostridium perfringens; experiment: Compound was evaluated for antimicrobial activity against Clostridium perfringens; assay type: functional
[4] = tested on: Campylobacter jejuni; experiment: Compound was evaluated for antimicrobial activity against Campylobacter jejuni; assay type: functional
[5] = tested on: Clostridioides difficile; experiment: Compound was evaluated for antimicrobial activity against Clostridium difficile; assay type: functional
[6] = tested on: Neisseria gonorrhoeae; experiment: Compound was evaluated for antimicrobial activity against Neisseria gonorrhoeae; assay type: functional
[7] = tested on: Neisseria meningitidis; experiment: Compound was evaluated for antimicrobial activity against Neisseria meningitidis; assay type: functional
[8] = tested on: Canis familiaris; experiment: Compound was evaluated for the inhibition of gastrin-stimulated gastric acid secretion in conscious heidenhain pouch dogs when administered 1 mg/kg perorally; assay type: functional; details: Canis lupus familiaris, Stomach, route oral
[9] = species on record: Cavia porcellus; experiment: Inhibition of histamine-stimulated chronotropic response in the isolated guinea pig right atrium at 1*10e-6 g/mL; assay type: functional, Cardiac atrium
[10] = tested on: Rattus norvegicus; experiment: Inhibition of histamine-stimulated gastric acid secretion in lumen-perfused stomach of the anaesthetized rats when administered 1 mg/kg intravenously; assay type: functional; details: route intravenous

## CCOCC/N=C(\NCCOCC)Nc1nc(-c2ccc(CNC(C)=O)o2)cs1
[1]
  MIC: 81 µg/mL (≈ 191 µM)

## COCC/N=C(\N)Nc1nc(-c2ccc(CNC(C)=O)o2)cs1
[1]
  MIC: 1.45 µg/mL (≈ 4.3 µM)

## CCOCCCC/N=C(\N)Nc1nc(-c2ccc(CNC(C)=O)o2)cs1
[1]
  MIC: 1.1 µg/mL (≈ 2.9 µM)

## CSCC/N=C(\N)Nc1nc(-c2ccc(CNC(C)=O)o2)cs1
[1]
  MIC: 1.67 µg/mL (≈ 4.72 µM)

## C#CCNC(=N)Nc1nc(-c2ccc(CNC(C)=O)o2)cs1
[1]
  MIC: 8.2 µg/mL (≈ 25.8 µM)

## CC(=O)NCc1ccc(-c2csc(NC(=N)NCCN3CCCCC3)n2)o1
[1]
  MIC: 27 µg/mL (≈ 69.1 µM)

## BISMUTH SUBSALICYLATE
[2]
  MIC: 50 µg/mL
[3]
  MIC: > 100 µg/mL
[4]
  MIC: 7.4 µg/mL
[5]
  MIC: 50 µg/mL
[1]
  MIC: 8.7 µg/mL
[6]
  MIC: 4.7 µg/mL
[7]
  MIC: 12.5 µg/mL

## CC(=O)NCc1ccc(-c2csc(NC(=N)NCCO)n2)o1
[1]
  MIC: 34 µg/mL (≈ 105 µM)

## Cc1ncc([N+](=O)[O-])n1CCO [METRONIDAZOLE]
[2]
  MIC: 0.59 µg/mL (≈ 3.45 µM)
[3]
  MIC: 1.75 µg/mL (≈ 10.2 µM)
[4]
  MIC: 30 µg/mL (≈ 175 µM)
[5]
  MIC: 0.2 µg/mL (≈ 1.17 µM)
[1]
  MIC: 5.4 µg/mL (≈ 31.6 µM)
[6]
  MIC: > 100 µg/mL
[7]
  MIC: > 100 µg/mL

## CC(=O)NCc1ccc(-c2csc(NC(=N)NC3CCCCC3)n2)o1
[1]
  MIC: 1.06 µg/mL (≈ 2.93 µM)

## C=CCNC(=N)Nc1nc(-c2ccc(CNC(C)=O)o2)cs1
[1]
  MIC: 1.45 µg/mL (≈ 4.54 µM)

## CCCCOCC/N=C(\N)Nc1nc(-c2ccc(CNC(C)=O)o2)cs1
[1]
  MIC: 1.43 µg/mL (≈ 3.77 µM)

## CC(=O)NCc1ccc(-c2csc(NC(=N)NCC3CC3)n2)o1
[1]
  MIC: 1.46 µg/mL (≈ 4.38 µM)

## CC1(C)S[C@@H]2[C@H](NC(=O)[C@H](N)c3ccc(O)cc3)C(=O)N2[C@H]1C(=O)O [AMOXICILLIN]
[2]
  MIC: 2.1 µg/mL (≈ 5.75 µM)
[3]
  MIC: 0.027 µg/mL (≈ 0.0739 µM)
[4]
  MIC: 2.2 µg/mL (≈ 6.02 µM)
[5]
  MIC: 0.28 µg/mL (≈ 0.766 µM)
[1]
  MIC: 0.021 µg/mL (≈ 0.0575 µM)
[6]
  MIC: 7.7 µg/mL (≈ 21.1 µM)
[7]
  MIC: 0.056 µg/mL (≈ 0.153 µM)

## CN/C(=N\CCSCc1nc[nH]c1C)NC#N [CIMETIDINE]
[8]
  inhibition in vivo at 1 mg/kg: 53%
[9]
  Inhibition: 43%
[10]
  inhibition in vivo at 1 mg/kg: 22%

From ChEMBL document CHEMBL1130815, “Anti-Helicobacter pylori agents. 2. Structure activity relationships in a new series of 2-alkylguanidino-4-furylthiazoles” (1998)
